Results reported in the SangsterLogP compilation.

Tests used:
[1] = method code SF, from PMID: 8453740
[2] = method code SF-W, from PMID: 8453740

Structure (SMILES)	logP [1]	also measured
CCCCN(C)C(=O)c1cccc(Oc2ccccc2)c1	3.89	–
CCCN(C)C(=O)c1cccc(Oc2ccccc2)c1	3.44	–
CNC(=O)c1cccc(Oc2ccccc2)c1	2.86	–
CN(C)C=C1OC(=O)C(C#N)=C1c1ccccc1	1.07	–
CCN(C)C(=O)c1cccc(Oc2ccccc2)c1	2.98	–
Cc1ccc(C)c(Oc2cccc(C(=O)NC(C)(C)C)c2)c1	4.78	–
CCCCCCOc1cccc(-c2cn(C)cc(-c3ccccc3)c2=O)c1	4.59	–
COc1cccc(-c2cn(C)cc(-c3ccccc3)c2=O)c1	1.94	–
CCCCCCN(C)C(=O)c1cccc(Oc2ccccc2)c1	–	logP: 5.01
CCCOc1cccc(-c2cn(C)cc(-c3ccccc3)c2=O)c1	2.98	–
CCCCCCOc1cccc(-c2cn(C)cc(-c3ccc(Cl)cc3)c2=O)c1	–	logP: 5.23
Cc1ccc(C)c(Oc2cccc(C(=O)NC(C)C)c2)c1	4.35	–
CN(C)C(=O)c1cccc(Oc2ccccc2)c1	2.57	–
CCCCCOc1cccc(-c2cn(C)cc(-c3ccccc3)c2=O)c1	4.07	–
CNc1cnn(-c2cccc(C(F)(F)F)c2)c(=O)c1Cl	–	logP [2]: 2.52
CCCCCN(C)C(=O)c1cccc(Oc2ccccc2)c1	4.43	–
CNC(=O)c1cccc(Oc2cc(C)ccc2C)c1	3.76	–
CNC1=C(c2cccc(C(F)(F)F)c2)C(=O)C(c2ccccc2)O1 (stereo not drawn)	3.22	–
